Test results taken from US20230013669A1, “Antibacterial Treatment Using a Cannabinoid and an Active Agent” (priority 2019, published 2023).
Values joined by “and” are separate entries in the source; they are usually repeats but may differ in a detail not shown here. Equal values may be shown once.

Experiments:
Assay type in all cases: cell-based
[1] = system: Escherichia coli ATCC 25922 (GN_001); assay: MIC micro-broth dilution assay (Example 1 method); conditions: GN_001
Experimental: (§5) The plates were covered and incubated at 37° C. for 18-20 h.
(§6) Optical density was read at 600 nm (OD600) using Tecan M1000 Pro Spectrophotometer. […] Analysis was performed using Microsoft Excel.

[2] = system: Klebsiella pneumoniae BAA-2146 (GN_045), NDM-1; assay: MIC micro-broth dilution assay (Example 1 method); conditions: Example 9 Table 35, compound alone, replicates, listed as MCC_000636
Experimental: (§1) Analysis was performed using Microsoft Excel.

[3] = system: Acinetobacter baumannii 03.021.1 (GN_038), Colistin resistant; assay: MIC micro-broth dilution assay (Example 1 method); conditions: for Minimum Inhibitory Concentration (MIC): replicates, listed as MCC_000636
Experimental: as §1

[4] = system: Escherichia coli HS71 (GN_110), CTX-M; assay: MIC micro-broth dilution assay (Example 1 method); conditions: Example 9 Table 35, compound alone, replicates
Experimental: as §1

[5] = system: Enterobacter cloacae CI Patercon BoxNo: 79 (GN_016), MDR; assay: MIC micro-broth dilution assay (Example 1 method); conditions: for Minimum Inhibitory Concentration (MIC): replicates, listed as MCC_000636
Experimental: as §1

[6] = system: Pseudomonas aeruginosa FADDI-PA067 (GN_177), Polymyxin resistant; assay: MIC micro-broth dilution assay (Example 1 method); conditions: GN_177
Experimental: as §1

[7] = system: Acinetobacter baumannii 03.021.1 (GN_039), Colistin resistant; assay: MIC micro-broth dilution assay (Example 1 method); conditions: for Minimum Inhibitory Concentration (MIC): replicates, listed as MCC_000636
Experimental: as §1

[8] = system: Pseudomonas aeruginosa ATCC 27853 (GN_042); assay: MIC micro-broth dilution assay (Example 1 method); conditions: GN_042
Experimental: as §5, §6

[9] = system: Acinetobacter baumannii AL1851, IpxA mutant; Lipid A deficient (GN_237); assay: MIC broth microdilution, 96-well, visual reading (Example 11)
Experimental: (§2) The experiment was performed to investigate the antimicrobial activity of cannabidiol (CBD) against an LPS deficient strain (GN_237 Acinetobacter baumannii, IpxA mutant; Lipid A deficient; obtained by colistin selection from base strain ATCC 19606) and its parent strain (GN_034, Acinetobacter baumannii, ATCC 19606).
(§3) All plates had flat bottom wells and were covered with low-evaporation lids.
(§4) Two biological replicates ×2 technical replicates were conducted on separate days (final n=4). Inhibition of bacterial growth was determined visually, where the MIC was recorded as the lowest compound concentration with no visible growth.

[10] = system: Acinetobacter baumannii ATCC 19606 Type Strain (GN_034); assay: as above; conditions: Example 11 Table 41; GN_034; n=4 replicates
Experimental: as §2, §3, §4

[11] = system: Acinetobacter baumannii ATCC 19606 (GN_034); assay: MIC micro-broth dilution assay (Example 1 method); conditions: GN_034
Experimental: as §5, §6

[12] = Example 1 Table 3, compound alone, replicates, listed as MCC_000636
[13] = Example 6 Table 23, compound alone, replicates, listed as MCC_000636
[14] = Example 8 Table 31, compound alone
[15] = Example 9 Table 35, compound alone

Polymyxin B
Minimal Inhibitory Concentration (MIC) [1, 12]: 1 µg/mL and 0.5 µg/mL | Minimum Inhibitory Concentration (MIC) [1, 13]: 0.25 μg/mL (2×) and 0.5 μg/mL and 1 μg/mL | MIC of Polymyxin B ([1]; Example 6 Table 24): 1 µg/mL | Minimum Inhibitory Concentration (MIC) [2]: 0.5 μg/mL and 0.25 μg/mL (3×) | Minimum Inhibitory Concentration (MIC) [3, 14]: 0.125 μg/mL (3×) and 0.25 μg/mL | MIC of MCC_00636 ([3]; Example 8 Table 32): 1 µg/mL | Minimum Inhibitory Concentration (MIC) [3, 15]: 0.125 μg/mL (3×) and 0.25 μg/mL | Minimum Inhibitory Concentration (MIC) [4]: 0.0625 µg/mL | Minimum Inhibitory Concentration (MIC) [5, 14]: 16 μg/mL and 8 μg/mL (3×) | MIC of MCC_00636 ([5]; Example 8 Table 32): 8 µg/mL | Minimum Inhibitory Concentration (MIC) [5, 15]: 16 μg/mL and 8 μg/mL (3×) | Minimum Inhibitory Concentration (MIC) ([6]; Example 8 Table 31, compound alone, replicates): 2 µg/mL | MIC of MCC_00636 ([6]; Example 8 Table 32): 2 µg/mL | Minimum Inhibitory Concentration (MIC) [7, 14]: 0.5 μg/mL and 0.25 μg/mL (3×) | MIC of MCC_00636 ([7]; Example 8 Table 32): 1 µg/mL | Minimum Inhibitory Concentration (MIC) [7, 15]: 0.5 μg/mL and 0.25 μg/mL (3×) | Minimal Inhibitory Concentration (MIC) ([8]; Example 1 Table 3, compound alone, replicates): 1 µg/mL | Minimum Inhibitory Concentration (MIC) [8, 13]: 0.5 μg/mL (2×) and 2 μg/mL (2×) | MIC of Polymyxin B ([8]; Example 6 Table 24): 2 µg/mL | activity alone ([9]; Example 11, Lipid A deficient GN_237): resistant | MIC (Test results) ([9]; Example 11 Table 41, GN_237, n=4 replicates): 128 µg/mL | MIC (Test results) [10]: >128 µg/mL | Minimal Inhibitory Concentration (MIC) [11, 12]: 1 µg/mL and 0.5 µg/mL | Minimum Inhibitory Concentration (MIC) [11, 13]: 0.25 µg/mL and 0.125 µg/mL and 2 µg/mL and 1 µg/mL | MIC of Polymyxin B ([11]; Example 6 Table 24): 1 µg/mL and 2 µg/mL
